# Assay results published in patent publication US8415342B2, “Besifloxacin ophthalmic composition for the treatment or control of infection” (Bausch & Lomb Incorporated, priority 2008, dated 2013).
# Like-named read-outs stand apart in the source and are kept apart here.
# How the values were obtained:
# Format in all cases: cell-based
# Anaerobic Bacteria = assay: MIC against anaerobic bacteria (Table 7); settings: for % S (percent of susceptible isolates): CLSI breakpoints
# Morganella morganii = assay: MIC, CLSI broth microdilution, clinical isolates; settings: Morganella morganii (N = 51)
# Klebsiella oxytoca = assay: MIC, CLSI broth microdilution, clinical isolates; settings: Klebsiella oxytoca (N = 50)
# Citrobacter koseri = assay: MIC, CLSI broth microdilution, clinical isolates; settings: Citrobacter koseri (N = 100)
# Staphylococcus warneri = assay: MIC, CLSI broth microdilution, clinical isolates; settings: Staphylococcus warneri (N = 50)
# [1] = test system: Staphylococcus haemolyticus; assay: MIC, CLSI broth microdilution, clinical isolates; settings: Staphylococcus haemolyticus (N = 101)
# [2] = test system: Staphylococcus lugdunensis; assay: MIC, CLSI broth microdilution, clinical isolates; settings: Staphylococcus lugdunensis (N = 15)
# [3] = test system: Staphylococcus epidermidis; assay: MIC, CLSI broth microdilution, clinical isolates; settings: for MIC50: Staphylococcus epidermidis
# Moraxella catarrhalis = assay: MIC, CLSI broth microdilution, clinical isolates; settings: Moraxella catarrhalis (N = 101)
# Staphylococcus hominis = assay: MIC, CLSI broth microdilution, clinical isolates; settings: Staphylococcus hominis (N = 50)
# Staphylococcus aureus = assay: MIC, CLSI broth microdilution, clinical isolates; settings: for MIC50 / MIC90: Staphylococcus aureus
# [4] = test system: Staphylococcus saprophyticus; assay: MIC, CLSI broth microdilution, clinical isolates; settings: Staphylococcus saprophyticus (N = 101)
# Viridans streptococci = assay: MIC, CLSI broth microdilution, clinical isolates; settings: Viridans streptococci (N = 156)
# Streptococcus pneumoniae = assay: MIC, CLSI broth microdilution, clinical isolates
# [5] = test system: Lancefield group C, F, G streptococci; assay: MIC, CLSI broth microdilution, clinical isolates; settings: G streptococci (N = 50)
# Streptococcus agalactiae = assay: MIC, CLSI broth microdilution, clinical isolates; settings: Streptococcus agalactiae (N = 100)
# Streptococcus pyogenes = assay: MIC, CLSI broth microdilution, clinical isolates; settings: Streptococcus pyogenes (N = 101)
# [6] = Bacteroides fragilis, Bacteroides fragilis (N = 20), read-out: MIC50
# [7] = Bacteroides fragilis, Bacteroides fragilis (N = 20), read-out: MIC90
# [8] = Clostridium perfringens (N = 21)
# [9] = Clostridium perfringens, Clostridium perfringens (N = 21)
# [10] = Fusobacterium spp. (N = 21), read-out: MIC50
# [11] = Fusobacterium spp. (N = 21), read-out: MIC90
# [12] = Propionibacterium acnes (N = 21)
# [13] = Staphylococcus epidermidis (CNS, N = 6)
# [14] = Staphylococcus epidermidis (CS, N = 9)
# [15] = Staphylococcus epidermidis (MRSE, N = 9)
# [16] = Staphylococcus epidermidis (MSSE, N = 6)
# [17] = Staphylococcus epidermidis (all phenotypes, N = 15)
# [18] = Staphylococcus aureus (CNS, N = 16)
# [19] = Staphylococcus aureus (CS, N = 14)
# [20] = Staphylococcus aureus (MSSA, N = 19)
# [21] = Staphylococcus aureus (all phenotypes, N = 30)
# [22] = MRSA, Staphylococcus aureus (MRSA, N = 11)
# [23] = MSSA, Staphylococcus aureus (MSSA, N = 19)
# [24] = Streptococcus pneumoniae (PISP, N = 2)
# [25] = Streptococcus pneumoniae (PSSP, N = 31)
# [26] = Streptococcus pneumoniae (all phenotypes, N = 35)
compound,measurement,setting,value
Cc1ncc([N+](=O)[O-])n1CCO [Metronidazole],MIC50,Anaerobic Bacteria,4 µg/mL
same,MIC90,Anaerobic Bacteria,4 µg/mL
same,MIC Range,Anaerobic Bacteria; Bacteroides fragilis (N = 20),2-2 μg/mL
same,% S (percent of susceptible isolates),Anaerobic Bacteria; Bacteroides fragilis (N = 20),100.0%
same,MIC50,Anaerobic Bacteria; [6],2 µg/mL
same,MIC90,Anaerobic Bacteria; [7],2 µg/mL
same,MIC Range,Anaerobic Bacteria; [8],1 to 4 µg/mL
same,% S (percent of susceptible isolates),Anaerobic Bacteria; [8],100.0%
same,MIC50,Anaerobic Bacteria; [9],2 µg/mL
same,MIC90,Anaerobic Bacteria; [9],4 µg/mL
same,MIC50,Anaerobic Bacteria; Cutibacterium acnes,> 16 µg/mL
same,MIC90,Anaerobic Bacteria; Cutibacterium acnes,> 16 µg/mL
same,MIC Range,Anaerobic Bacteria; Fusobacterium spp. (N = 21),≦0.12-2 μg/mL
same,% S (percent of susceptible isolates),Anaerobic Bacteria; Fusobacterium spp. (N = 21),100.0%
same,MIC50,Anaerobic Bacteria; [10],0.25 µg/mL
same,MIC90,Anaerobic Bacteria; [11],1 µg/mL
same,MIC Range,Anaerobic Bacteria; Prevotella spp. (N = 20),0.25 to 8 µg/mL
same,% S (percent of susceptible isolates),Anaerobic Bacteria; Prevotella spp. (N = 20),100.0%
same,% S (percent of susceptible isolates),Anaerobic Bacteria; [12],0.0%
CC(C)(O/N=C(\C(=O)N[C@@H]1C(=O)N2C(C(=O)[O-])=C(C[n+]3ccccc3)CS[C@H]12)c1csc(N)n1)C(=O)O [Ceftazidime],% S,Morganella morganii,82.4%
same,MIC50,Morganella morganii,0.12 µg/mL
same,MIC90,Morganella morganii,16 µg/mL
same,% S,Klebsiella oxytoca,100.0%
same,MIC50,Klebsiella oxytoca,0.12 µg/mL
same,MIC90,Klebsiella oxytoca,0.5 µg/mL
same,MIC Range,Klebsiella oxytoca,0.03 to 1 µg/mL
same,% S,Citrobacter koseri,100.0%
same,MIC50,Citrobacter koseri,0.12 µg/mL
same,MIC90,Citrobacter koseri,0.5 µg/mL
same,MIC Range,Citrobacter koseri,0.06 to 4 µg/mL
Cc1onc(-c2ccccc2)c1C(=O)N[C@@H]1C(=O)N2[C@@H]1SC(C)(C)[C@@H]2C(=O)O [Oxacillin],% S,Staphylococcus warneri,46.0%
same,MIC50,Staphylococcus warneri,0.5 µg/mL
same,MIC90,Staphylococcus warneri,> 8 µg/mL
same,% S,[1],31.7%
same,MIC50,[1],> 8 µg/mL
same,MIC90,[1],> 8 µg/mL
same,% S,[2],60.0%
same,MIC50,[2],0.5 µg/mL
same,MIC90,[2],> 8 µg/mL
same,% S,[3]; [13],50.0%
same,MIC Range,[3]; [13],0.12 to 4 µg/mL
same,% S,[3]; [14],55.6%
same,MIC Range,[3]; [14],≦0.06-2 μg/mL
same,% S,[3]; [15],0.0%
same,MIC Range,[3]; [15],1 to 4 µg/mL
same,% S,[3]; [16],100.0%
same,MIC Range,[3]; [16],≦0.06-0.12 μg/mL
same,% S,[3]; [17],40.0%
same,MIC90,[3]; [17],2 µg/mL
same,MIC Range,[3]; [17],≦0.06-4 μg/mL
same,MIC50,"[3]; MRSE, Staphylococcus epidermidis (MRSE, N = 9)",1 µg/mL
same,MIC50,[3]; [13],1 µg/mL
same,MIC50,[3]; [14],0.12 µg/mL
same,MIC50,[3]; [16],≤ 0.06 µg/mL
same,MIC50,[3]; [17],1 µg/mL
same,MIC50,Moraxella catarrhalis,4 µg/mL
same,MIC90,Moraxella catarrhalis,8 µg/mL
same,% S,Staphylococcus hominis,16.0%
same,MIC50,Staphylococcus hominis,> 8 µg/mL
same,MIC90,Staphylococcus hominis,> 8 µg/mL
same,% S,Staphylococcus aureus; [18],50.0%
same,% S,Staphylococcus aureus; [19],78.6%
same,% S,"Staphylococcus aureus; Staphylococcus aureus (MRSA, N = 11)",0.0%
same,% S,Staphylococcus aureus; [20],100.0%
same,MIC Range,Staphylococcus aureus; [20],0.12 to 0.5 µg/mL
same,% S,Staphylococcus aureus; [21],63.3%
same,MIC50,Staphylococcus aureus; [22],> 8 µg/mL
same,MIC90,Staphylococcus aureus; [22],> 8 µg/mL
same,MIC50,Staphylococcus aureus; [23],0.25 µg/mL
same,MIC90,Staphylococcus aureus; [23],0.5 µg/mL
same,MIC50,Staphylococcus aureus; [18],0.5 µg/mL
same,MIC90,Staphylococcus aureus; [18],> 8 µg/mL
same,MIC50,Staphylococcus aureus; [19],0.25 µg/mL
same,MIC90,Staphylococcus aureus; [19],> 8 µg/mL
same,MIC50,Staphylococcus aureus; [21],0.25 µg/mL
same,MIC90,Staphylococcus aureus; [21],> 8 µg/mL
same,% S,[4],9.9%
same,MIC50,[4],0.5 µg/mL
same,MIC90,[4],1 µg/mL
Penicillin,% S,Viridans streptococci,76.3%
same,MIC50,Viridans streptococci,0.06 µg/mL
same,MIC90,Viridans streptococci,1 µg/mL
same,% S,Streptococcus pneumoniae; [24],0.0%
same,MIC Range,Streptococcus pneumoniae; [24],4-4 μg/mL
same,% S,"Streptococcus pneumoniae; Streptococcus pneumoniae (PRSP, N = 2)",0.0%
same,% S,Streptococcus pneumoniae; [25],100.0%
same,MIC50,Streptococcus pneumoniae; [25],≦0.015 μg/mL
same,MIC90,Streptococcus pneumoniae; [25],0.25 µg/mL
same,MIC Range,Streptococcus pneumoniae; [25],≦0.015-0.5 μg/mL
same,% S,Streptococcus pneumoniae; [26],88.6%
same,MIC50,Streptococcus pneumoniae; [26],≦0.015 μg/mL
same,MIC90,Streptococcus pneumoniae; [26],4 µg/mL
same,% S,[5],100.0%
same,MIC50,[5],≦0.015 μg/mL
same,MIC90,[5],0.06 µg/mL
same,MIC Range,[5],≦0.015-0.06 μg/mL
same,% S,Streptococcus agalactiae,100.0%
same,MIC50,Streptococcus agalactiae,0.03 µg/mL
same,MIC90,Streptococcus agalactiae,0.06 µg/mL
same,MIC Range,Streptococcus agalactiae,≦0.015-0.06 μg/mL
same,% S,Streptococcus pyogenes,100.0%
same,MIC50,Streptococcus pyogenes,≦0.015 μg/mL
same,MIC90,Streptococcus pyogenes,≦0.015 μg/mL
same,MIC Range,Streptococcus pyogenes,≦0.015-0.06 μg/mL
CCC[C@@H]1C[C@@H](C(=O)N[C@@H]([C@H]2O[C@H](SC)[C@H](O)[C@@H](O)[C@H]2O)[C@H](C)Cl)N(C)C1 [Clindamycin],MIC50,Anaerobic Bacteria,≤ 0.03 µg/mL
same,MIC90,Anaerobic Bacteria,> 8 µg/mL
same,% S (percent of susceptible isolates),Anaerobic Bacteria; Bacteroides fragilis (N = 20),65.0%
same,MIC50,Anaerobic Bacteria; [6],2 µg/mL
same,MIC90,Anaerobic Bacteria; [7],> 8 µg/mL
same,MIC Range,Anaerobic Bacteria; [8],0.06 to 4 µg/mL
same,% S (percent of susceptible isolates),Anaerobic Bacteria; [8],85.7%
same,MIC50,Anaerobic Bacteria; [9],2 µg/mL
same,MIC90,Anaerobic Bacteria; [9],4 µg/mL
same,MIC50,Anaerobic Bacteria; Cutibacterium acnes,0.06 µg/mL
same,MIC90,Anaerobic Bacteria; Cutibacterium acnes,0.12 µg/mL
same,MIC Range,Anaerobic Bacteria; Fusobacterium spp. (N = 21),0.06 to 8 µg/mL
same,% S (percent of susceptible isolates),Anaerobic Bacteria; Fusobacterium spp. (N = 21),95.2%
same,MIC50,Anaerobic Bacteria; [10],0.06 µg/mL
same,MIC90,Anaerobic Bacteria; [11],2 µg/mL
same,% S (percent of susceptible isolates),Anaerobic Bacteria; Prevotella spp. (N = 20),85.0%
same,MIC Range,Anaerobic Bacteria; [12],≦0.03-2 μg/mL
same,% S (percent of susceptible isolates),Anaerobic Bacteria; [12],100.0%
